From paper PMC9481103 (2022)

What was measured:
Experiment in all cases: in-line probing
Details in all cases: 20 mM MgCl2, 100 mM KCl, 50 mM Tris-HCl pH 8.3, 28 °C, 42-48 h, apparent
[1] = system: aptamer 2 (c-di-GMP-I riboswitch aptamer, cluster 2) (RNA, riboswitch) GUCGUGAAGAAGCCACACCCCGGGCGACCGGGGGCCGGAAAGCCGCGGGUCUCAGCAGAGACGGCCGGGUUGCCACCAGAC
[2] = system: aptamer 3 (c-AMP-GMP riboswitch aptamer, cluster 3) (RNA, riboswitch) GCCGUGAAAAAACCACACCUCGGGCGACCGGGGGCCGGAAAGCCGCGGGUCUCAAAGGAGAUGGCCGGGUUGCCAGAAGGC
[3] = system: aptamer 1 (c-di-GMP-I riboswitch aptamer, cluster 1) (RNA, riboswitch) GUCGUGAACAAGCCACACCCCGGGCGACCGGGGGCCGGAAAGCCGCGGGUCUCAGCAGAGACGGCCGGGUUGCCACCAGGC

Row | Compound | KD ([1]; Hill coefficient fixed at 1, micro sign lost in text layer ("25 M")) | KD ([2]; Hill coefficient fixed at 1, micro sign lost in text layer ("1 M")) | KD ([3]; Hill coefficient fixed at 1, micro sign lost in text layer ("34 M")) | KD ([1]; Hill coefficient fixed at 1) | KD ([2]; Hill coefficient fixed at 1) | KD ([3]; Hill coefficient fixed at 1)
1 | Nc1nc2c(ncn2[C@@H]2O[C@@H]3COP(=O)(O)O[C@H]4[C@@H](O)[C@H](n5cnc6c(N)ncnc65)O[C@@H]4COP(=O)(O)O[C@H]3[C@H]2O)c(=O)[nH]1 | ~ 25 µM | ~ 1 µM | ~ 34 µM |  |  | 
2 | Nc1nc2c(ncn2[C@@H]2O[C@@H]3COP(=O)(O)O[C@H]4[C@@H](O)[C@H](n5cnc6c(=O)[nH]c(N)nc65)O[C@@H]4COP(=O)(O)O[C@H]3[C@H]2O)c(=O)[nH]1 |  |  |  | ~ 77 nM | ~ 100 nM | ~ 20 nM
